# Results: paper PMC10872706 (The FEBS journal, 2023)
# Several values for one entry are separate records, joined by “and”; a condition that tells them apart may be missing. Equal values may be shown once. Read-outs that look alike come from different tables or passages of the source.
# Assays:
# E. coli PdxI [1] = target: T1, E. coli PdxI (Escherichia coli, UniProt P25906); test: Differential scanning fluorimetry; format: binding; conditions: for effect on thermal stability (Tm) when added alone: vitamers 100 μM, NAD+ or NADH 400 μM; for effect on thermal stability (Tm) when added alone / Kd: 2 μM PdxI; for increase of thermal stability: increasing concentrations of dinucleotide; for Kd: read-out: apparent dissociation constant, from changes of Tm as a function of NADP(H) concentration, 20 mM KPi pH 7.3; for further change of Tm on adding vitamer to pre-incubated PdxI and dinucleotide: 200 μM vitamer, PL added to PdxI-NAD(P)+, PN to PdxI-NAD(P)H
# T1 sequence (P25906 1-286): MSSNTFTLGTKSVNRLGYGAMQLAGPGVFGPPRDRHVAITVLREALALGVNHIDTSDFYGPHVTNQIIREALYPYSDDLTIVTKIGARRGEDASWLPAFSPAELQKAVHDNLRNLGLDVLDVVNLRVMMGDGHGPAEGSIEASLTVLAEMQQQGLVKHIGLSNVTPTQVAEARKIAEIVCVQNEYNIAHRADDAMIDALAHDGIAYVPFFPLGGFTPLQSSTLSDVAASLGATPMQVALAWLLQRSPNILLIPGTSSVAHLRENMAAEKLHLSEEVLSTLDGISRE
# E. coli PdxI [2] = target: T1, E. coli PdxI; test: Reactions catalysed by PdxI, discontinuous assay with HPLC quantification; format: biochemical
# E. coli PdxI [3] = target: T1, E. coli PdxI; test: Isothermal titration calorimetry; format: binding
# E. coli PdxI [4] = target: T1, E. coli PdxI; test: Spectrophotometric kinetic characterisation of PdxI; conditions: for type of product inhibition with respect to NADPH: NADPH varied, PL fixed at 38 μM
# [5] = system: E. coli BW25113 wild type; format: cell-based, Escherichia coli
# [6] = system: E. coli BW25113 pdxI knock out strain; format: cell-based, Escherichia coli; conditions: for beneficial effect of low concentrations on growth: low concentrations in M9 medium
# [7] = system: E. coli pdxK, pdxY, pdxKY knock out strains; format: cell-based, Escherichia coli; conditions: M9 medium, all these strains
# [8] = system: E. coli BW25113 wild type; test: B6 vitamer levels in cell extracts by HPLC, wild type; format: cell-based, Escherichia coli
# E. coli BW25113 cells = test: RT-qPCR relative expression of vitamin B6 metabolism genes; format: cell-based, Escherichia coli; conditions: 0.1 mM vitamer in M9, relative to M9 = 100%; for Expression level of pdxI: (*) P < 0.01
# PdxK = conditions: cited from earlier work
# [9] = system: E. coli BW25113 pdxI knock out strain; format: cell-based, Escherichia coli
# E. coli PdxI [10] = target: T1, E. coli PdxI; conditions: in vitro; cited from earlier work
# [11] = ligand alone titrated into PdxI
# [12] = ligand alone titrated into PdxI (binary complex)
# [13] = ligand alone titrated into PdxI, 20°C, pH 7.4, NB = non-binding ligand
# [14] = PL added to pre-incubated mixture of PdxI and NADPH (ternary complex)
# [15] = medium supplemented with 1.5 mM PL
# [16] = medium supplemented with 0.1 mM PN
compound,measurement,setting,value
NC(=O)C1=CN([C@@H]2O[C@H](COP(=O)(O)OP(=O)(O)OC[C@H]3O[C@@H](n4cnc5c(N)ncnc54)[C@H](O)[C@@H]3O)[C@@H](O)[C@H]2O)C=CC1 [NADH],effect on thermal stability (Tm) when added alone,E. coli PdxI [1],no effect
same,reaction rate with PL and NADH relative to that with NADPH,"E. coli PdxI [2]; 200 μM PL, 400 μM dinucleotide",10 times slower
"NC(=O)C1=CN([C@@H]2O[C@H](COP(=O)(O)OP(=O)(O)OC[C@H]3O[C@@H](n4cnc5c(N)ncnc54)[C@H](OP(=O)(O)O)[C@@H]3O)[C@@H](O)[C@H]2O)C=CC1 [NADPH, reduced nicotinamide adenine dinucleotide phosphate]",N value,E. coli PdxI [3]; [11],1.13 ± 0.05
same,ΔH,E. coli PdxI [3]; [12],-2.964 ± 0.0335 kcal/mol
same,ΔS,E. coli PdxI [3]; [12],−18 ± 1 J mol^−1/deg
same,Kd,E. coli PdxI [3]; [13],4.2 ± 0.35 µM
same,increase of thermal stability,E. coli PdxI [1],up to 9 °C
same,Kd,E. coli PdxI [1],81 ± 16 µM
same,Km,"E. coli PdxI [4]; PL reduction to PN by NADPH, 37 °C, 20 mM KPi pH 7.3, 0.05 μM PdxI",12 ± 4 µM
"NC(=O)c1ccc[n+]([C@@H]2O[C@H](COP(=O)([O-])OP(=O)(O)OC[C@H]3O[C@@H](n4cnc5c(N)ncnc54)[C@H](OP(=O)(O)O)[C@@H]3O)[C@@H](O)[C@H]2O)c1 [NADP^+, oxidised nicotinamide adenine dinucleotide phosphate]",N value,E. coli PdxI [3]; [11],0.99 ± 0.09
same,ΔH,E. coli PdxI [3]; [12],-5.16 ± 0.134 kcal/mol
same,ΔS,E. coli PdxI [3]; [12],−54 ± 2 J mol^−1/deg
same,Kd,E. coli PdxI [3]; [13],46.3 ± 1.97 µM
same,increase of thermal stability,E. coli PdxI [1],up to 9 °C
same,Kd,E. coli PdxI [1],856 ± 490 µM
same,type of product inhibition with respect to NADPH,E. coli PdxI [4],competitive inhibitor
NC(=O)c1ccc[n+]([C@@H]2O[C@H](COP(=O)([O-])OP(=O)(O)OC[C@H]3O[C@@H](n4cnc5c(N)ncnc54)[C@H](O)[C@@H]3O)[C@@H](O)[C@H]2O)c1 [NAD^+],effect on thermal stability (Tm) when added alone,E. coli PdxI [1],no effect
"Cc1ncc(CO)c(C=O)c1O [PL, pyridoxal]",Kd,E. coli PdxI [3],0.024 ± 0.01 µM
same,N value,E. coli PdxI [3]; PL added to pre-incubated 1:1 mixture of PdxI and NADPH,0.61 and 0.61 ± 0.02
same,ΔH,E. coli PdxI [3]; [14],-0.884 ± 0.0359 kcal/mol
same,ΔS,E. coli PdxI [3]; [14],22 ± 1 J mol^−1/deg
same,further change of Tm on adding vitamer to pre-incubated PdxI and dinucleotide,E. coli PdxI [1],did not further increase Tm
same,effect on thermal stability (Tm) when added alone,E. coli PdxI [1],no effect
same,effect on growth,[5]; up to 0.1 mM in M9 medium,beneficial
same,effect on growth,[5]; up to 1 mM in M9 medium,abolish this beneficial effect
same,effect on bacterial growth,[6]; 1 mM in M9 medium,toxicity
same,effect on bacterial growth,[6]; 2 mM in M9 medium,nearly arrested
same,beneficial effect of low concentrations on growth,[6],not visible
same,concentration at which PL toxicity is observed,[7],≥ 1400 µM
same,increase of PL levels,[8]; [15],about 800 fold
same,Expression level of pdxB,E. coli BW25113 cells,97%
same,Expression level of pdxH,E. coli BW25113 cells,110%
same,Expression level of pdxJ,E. coli BW25113 cells,86%
same,Expression level of pdxK,E. coli BW25113 cells,105%
same,Expression level of pdxY,E. coli BW25113 cells,118%
same,Expression level of ybhA,E. coli BW25113 cells,110%
same,Expression level of pdxI,E. coli BW25113 cells,134% (*)
same,PL converted into PN at equilibrium,"E. coli PdxI [2]; 200 μM PL, 400 μM NADH, 0.2 μM PdxI",98.3 ± 2.6%
same,PL converted into PN at equilibrium,"E. coli PdxI [2]; 200 μM PL, 400 μM NADPH, 0.2 μM PdxI",96 ± 1.7%
same,kcat of PdxK,PdxK; PL as substrate,2.3 s⁻¹
same,Km,PdxK; read-out: KM for PL of PdxK,100 µM
same,increase of PL levels,[9]; [15],about 3400 fold
"Cc1ncc(COP(=O)(O)O)c(C=O)c1O [PLP, Pyridoxal 5’-phosphate]",effect on thermal stability (Tm) when added alone,E. coli PdxI [1],no effect
same,activity of PdxI with the substrate,E. coli PdxI [10],no detectable activity
same,conversion of PLP into PNP,"E. coli PdxI [2]; 200 μM PLP, 400 μM NADPH, 0.2 μM PdxI",apparently complete
same,Km,E. coli PdxI [4]; PLP reduction to PNP by NADPH,> 1200 µM
"Cc1ncc(CO)c(CN)c1O [PM, pyridoxamine]",activity of PdxI with the substrate,E. coli PdxI [10],no detectable activity
same,conversion of PM to PL,E. coli PdxI [2]; NADP+ as electron acceptor,could not be detected
"Cc1ncc(CO)c(CO)c1O [PN, pyridoxine]",further change of Tm on adding vitamer to pre-incubated PdxI and dinucleotide,E. coli PdxI [1],did not further increase Tm
same,effect on thermal stability (Tm) when added alone,E. coli PdxI [1],no effect
same,effect on growth,[5]; up to 1 mM in M9 medium,beneficial effect
same,beneficial effect of low concentrations on growth,[6],not visible
same,rise of PLP levels,[8]; [16],1.5 fold
same,Expression level of pdxB,E. coli BW25113 cells,103%
same,Expression level of pdxH,E. coli BW25113 cells,95%
same,Expression level of pdxJ,E. coli BW25113 cells,88%
same,Expression level of pdxK,E. coli BW25113 cells,107%
same,Expression level of pdxY,E. coli BW25113 cells,115%
same,Expression level of ybhA,E. coli BW25113 cells,108%
same,Expression level of pdxI,E. coli BW25113 cells,98%
same,PN converted to PL (reverse reaction),"E. coli PdxI [2]; 200 μM PN, 400 μM NADP+, 1 μM PdxI",5 ± 1.3%
same,rise of PLP levels,[9]; [16],1.8 fold
same,type of product inhibition with respect to NADPH,E. coli PdxI [4],mixed inhibition
